The assay concerns the target T1, full length SGK1 (Homo sapiens, UniProt O00141).
T1 construct: 125 μM full length SGK1 (Life Technologies Part #PR7358A); purchased Life Technologies PR7358A
T1 sequence (O00141 1-431): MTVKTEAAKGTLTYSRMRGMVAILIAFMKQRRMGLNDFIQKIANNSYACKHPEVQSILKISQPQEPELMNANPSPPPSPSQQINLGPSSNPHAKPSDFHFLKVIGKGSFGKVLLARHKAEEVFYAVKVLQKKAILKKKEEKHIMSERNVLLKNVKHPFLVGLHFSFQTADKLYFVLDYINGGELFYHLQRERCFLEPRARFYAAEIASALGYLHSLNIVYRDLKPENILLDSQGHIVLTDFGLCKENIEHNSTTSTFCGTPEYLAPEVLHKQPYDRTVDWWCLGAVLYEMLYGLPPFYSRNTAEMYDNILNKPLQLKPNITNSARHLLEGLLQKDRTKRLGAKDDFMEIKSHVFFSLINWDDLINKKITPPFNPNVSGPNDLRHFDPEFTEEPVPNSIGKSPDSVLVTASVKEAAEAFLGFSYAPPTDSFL
The experiment in a line: SGK1 inhibition Assay A (Caliper LabChip electrophoretic separation of fluorescent peptide substrate and phosphorylated product). To be noted: Assay A; 20 μM ATP, 40 min incubation; read-out: SGK1 IC50. It counts as biochemical.

Where a name gives a salt, the structure may show the parent alone.

Broadly, the IC50 is the concentration needed to halve the response being measured.

As for `COc1cc(C(=O)N(C)[C@@H]2CCCN(c3cc(-c4ccc(S(C)(=O)=O)cc4)n4ncnc(N)c34)C2)ccn1` [Example 121, (R)—N-(1-(4-amino-7-(4-(methylsulfonyl)phenyl)pyrrolo[2,1-f][1,2,4]triazin-5-yl)piperidin-3-yl)-2-methoxy-N-methylisonicotinamide], the IC50 is 383 nM.

Regarding `Cc1ccc(C(=O)N(C)[C@@H]2CCCN(c3cc(-c4ccc(S(C)(=O)=O)cc4)n4ncnc(N)c34)C2)s1` [Example 122, (R)—N-(1-(4-amino-7-(4-(methylsulfonyl)phenyl)pyrrolo[2,1-f][1,2,4]triazin-5-yl)piperidin-3-yl)-N,5-dimethylthiophene-2-carboxamide], the half-maximal inhibitory concentration (IC50) came to 29 nM.

With `CN(C(=O)c1ccccc1)[C@@H]1CCCN(c2cc(-c3ccc(S(C)(=O)=O)cc3)n3ncnc(N)c23)C1` [Example 123, (R)—N-(1-(4-amino-7-(4-(methylsulfonyl)phenyl)pyrrolo[2,1-f][1,2,4]triazin-5-yl)piperidin-3-yl)-N-methylbenzamide], the IC50 was found to be 606 nM.

Take `Cc1ccc(C(=O)N[C@@H]2CCCN(c3cc(C4=CCN(S(C)(=O)=O)C4)n4ncnc(N)c34)C2)s1` [Example 124, (R)—N-(1-(4-amino-7-(1-(methylsulfonyl)-2,5-dihydro-1H-pyrrol-3-yl)pyrrolo[2,1-f][1,2,4]triazin-5-yl)piperidin-3-yl)-5-methylthiophene-2-carboxamide]: the concentration for half-maximal inhibition (IC50) is 2 nM.

With `Cc1ccc(C(=O)N[C@@H]2CCCN(c3cc(C4=CN(S(C)(=O)=O)CC4)n4ncnc(N)c34)C2)s1` [Example 125], the 50% inhibitory concentration (IC50) was 27 nM.

For the compound `Nc1ncnn2c(-c3ccncc3)cc(N3CCC[C@@H](NC(=O)c4ccccc4)C3)c12` [Example 126, N-[(3R)-1-[4-amino-7-(pyridin-4-yl)pyrrolo[2,1-f][1,2,4]triazin-5-yl]piperidin-3-yl]benzamide], the concentration for half-maximal inhibition (IC50) is 5 nM.

Consider `COc1cc(C(=O)N[C@@H]2CCCN(c3cc(-c4ccncc4)n4ncnc(N)c34)C2)ccn1` [Example 127, N-[(3R)-1-[4-amino-7-(pyridin-4-yl)pyrrolo[2,1-f][1,2,4]triazin-5-yl]piperidin-3-yl]-2-methoxypyridine-4-carboxamide], for which the half-maximal inhibitory concentration (IC50) worked out at 5 nM.

Regarding `Cc1ccc(C(=O)N[C@@H]2CCCN(c3cc(-c4ccncc4)n4ncnc(N)c34)C2)s1` [Example 128, N-[(3R)-1-[4-amino-7-(pyridin-4-yl)pyrrolo[2,1-f][1,2,4]triazin-5-yl]piperidin-3-yl]-5-methylthiophene-2-carboxamide], the IC50 is 2 nM.

For the compound `Nc1ncnn2c(-c3ccnc(F)c3)cc(N3CCC[C@@H](NC(=O)c4ccc(Cl)s4)C3)c12` [Example 130, N-[(3R)-1-[4-amino-7-(2-fluoropyridin-4-yl)pyrrolo[2,1-f][1,2,4]triazin-5-yl]piperidin-3-yl]-5-chlorothiophene-2-carboxamide], the IC50 turned out to be 19 nM.

On to `Cc1ccc(C(=O)N[C@@H]2CCCN(c3cc(-c4ccnc(F)c4)n4ncnc(N)c34)C2)s1` [Example 131, N-[(3R)-1-[4-amino-7-(2-fluoropyridin-4-yl)pyrrolo[2,1-f][1,2,4]triazin-5-yl]piperidin-3-yl]-5-methylthiophene-2-carboxamide], for which the half-inhibitory concentration (IC50) turned out to be 2 nM.

Turning to `Cc1cc(-c2cc(N3CCC[C@@H](NC(=O)c4ccc(Cl)s4)C3)c3c(N)ncnn23)ccn1` [Example 132, N-[(3R)-1-[4-amino-7-(2-methylpyridin-4-yl)pyrrolo[2,1-f][1,2,4]triazin-5-yl]piperidin-3-yl)-5-chlorothiophene-2-carboxamide], the IC50 was 4 nM.

`Cc1cc(-c2cc(N3CCC[C@@H](NC(=O)c4ccc(C)s4)C3)c3c(N)ncnn23)ccn1` [Example 133, N-[(3R)-1-[4-amino-7-(2-methylpyridin-4-yl)pyrrolo[2,1-f][1,2,4]triazin-5-yl]piperidin-3-yl]-5-methylthiophene-2-carboxamide]: the concentration for half-maximal inhibition (IC50) turned out to be 4 nM.

In the case of `CS(=O)(=O)N1CC=C(c2cc(N3CCC[C@@H](NC(=O)c4ccc(Cl)s4)C3)c3c(N)ncnn23)C1` [Example 134, (R)—N-(1-(4-amino-7-(1-(methylsulfonyl)-2,5-dihydro-1H-pyrrol-3-yl)pyrrolo[2,1-f][1,2,4]triazin-5-yl)piperidin-3-yl)-5-chlorothiophene-2-carboxamide], the IC50 came to 2 nM.

In the case of `CS(=O)(=O)N1CC=C(c2cc(N3CCC[C@@H](NC(=O)c4cccs4)C3)c3c(N)ncnn23)C1` [Example 135, (R)—N-(1-(4-amino-7-(1-(methylsulfonyl)-2,5-dihydro-1H-pyrrol-3-yl)pyrrolo[2,1-f][1,2,4]triazin-5-yl)piperidin-3-yl)thiophene-2-carboxamide, TFA], the half-maximal inhibitory concentration (IC50) stood at 3 nM.

For `Cc1ccc(C(=O)N[C@@H]2CCN(c3cc(-c4ccc(S(C)(=O)=O)cc4)n4ncnc(N)c34)C2)s1` [Example 136, (R)—N-(1-(4-amino-7-(4-(methylsulfonyl)phenyl)pyrrolo[2,1-f][1,2,4]triazin-5-yl)pyrrolidin-3-yl)-5-methylthiophene-2-carboxamide, TFA], the IC50 amounted to 230 nM.

As for `CS(=O)(=O)c1ccc(-c2cc(N3CC[C@@H](NC(=O)c4ccc(Cl)s4)C3)c3c(N)ncnn23)cc1` [Example 137, (R)—N-(1-(4-amino-7-(4-(methylsulfonyl)phenyl)pyrrolo[2,1-f][1,2,4]triazin-5-yl)pyrrolidin-3-yl)-5-chlorothiophene-2-carboxamide, TFA], the IC50 was found to be 143 nM.

As for `COC(=O)N1CC=C(c2cc(N3CCC[C@@H](NC(=O)c4ccc(Cl)s4)C3)c3c(N)ncnn23)C1` [Example 138, methyl (R)-3-(4-amino-5-(3-(5-chlorothiophene-2-carboxamido)piperidin-1-yl)pyrrolo[2,1-f][1,2,4]triazin-7-yl)-2,5-dihydro-1H-pyrrole-1-carboxylate, TFA], the IC50 was 7 nM.

Consider `NC(=O)c1ccc(-c2cc(N3CCC[C@@H](NC(=O)c4ccc(Cl)s4)C3)c3c(N)ncnn23)cc1F` [Example 139, (R)—N-(1-(4-amino-7-(4-carbamoyl-3-fluorophenyl)pyrrolo[2,1-f][1,2,4]triazin-5-yl)piperidin-3-yl)-5-chlorothiophene-2-carboxamide, TFA], for which the concentration for half-maximal inhibition (IC50) stood at 3 nM.

Regarding `COCCOc1cc(Cl)sc1C(=O)N[C@@H]1CCCN(c2cc(C3=CCN(S(C)(=O)=O)C3)n3ncnc(N)c23)C1` [Example 140, (R)—N-(1-(4-amino-7-(1-(methylsulfonyl)-2,5-dihydro-1H-pyrrol-3-yl)pyrrolo[2,1-f][1,2,4]triazin-5-yl)piperidin-3-yl)-5-chloro-3-(2-methoxyethoxy)thiophene-2-carboxamide], the IC50 stood at 6 nM.

Take `CN(C)CCOc1cc(Cl)sc1C(=O)N[C@@H]1CCCN(c2cc(C3=CCN(S(C)(=O)=O)C3)n3ncnc(N)c23)C1` [Example 141, (R)—N-(1-(4-amino-7-(1-(methylsulfonyl)-2,5-dihydro-1H-pyrrol-3-yl)pyrrolo[2,1-f][1,2,4]triazin-5-yl)piperidin-3-yl)-5-chloro-3-(2-(dimethylamino)ethoxy)thiophene-2-carboxamide, TFA]: the IC50 was 3 nM.

Take `CS(=O)(=O)N1CC=C(c2cc(N3CCC[C@@H](NC(=O)c4sc(Cl)cc4OCCN4CCOCC4)C3)c3c(N)ncnn23)C1` [Example 142, (R)—N-(1-(4-amino-7-(1-(methylsulfonyl)-2,5-dihydro-1H-pyrrol-3-yl)pyrrolo[2,1-f][1,2,4]triazin-5-yl)piperidin-3-yl)-5-chloro-3-(2-morpholinoethoxy)thiophene-2-carboxamide, TFA]: the half-inhibitory concentration (IC50) amounted to 9 nM.

Consider `CC1(NC(=O)c2ccc(Cl)s2)CCCN(c2cc(-c3ccc(S(C)(=O)=O)cc3)n3ncnc(N)c23)C1` (centres unmarked) [Example 145, N-(1-(4-amino-7-(4-(methylsulfonyl)phenyl)pyrrolo[2,1-f][1,2,4]triazin-5-yl)-3-methylpiperidin-3-yl)-5-chlorothiophene-2-carboxamide, TFA], for which the IC50 is 765 nM.

As to `C[C@@]1(NC(=O)c2ccc(Cl)s2)CCCN(c2cc(-c3ccc(S(C)(=O)=O)cc3)n3ncnc(N)c23)C1` [Example 146, (R)—N-(1-(4-amino-7-(4-(methylsulfonyl)phenyl)pyrrolo[2,1-f][1,2,4]triazin-5-yl)-3-methylpiperidin-3-yl)-5-chlorothiophene-2-carboxamide, TFA], the half-maximal inhibitory concentration (IC50) came out at 835 nM.

As for `COCCOc1cc(Cl)sc1C(=O)N[C@@H]1CCCN(c2cc(-c3ccnc(F)c3)n3ncnc(N)c23)C1` [Example 147, (R)-N-(1-(4-amino-7-(2-fluoropyridin-4-yl)pyrrolo[2,1-f][1,2,4]triazin-5-yl)piperidin-3-yl)-5-chloro-3-(2-methoxyethoxy)thiophene-2-carboxamide], the IC50 was 4 nM.

Turning to `Nc1ncnn2c(-c3ccnc(F)c3)cc(N3CCC[C@@H](NC(=O)c4sc(Cl)cc4OCCN4CCOCC4)C3)c12` [Example 148, (R)-N-(1-(4-amino-7-(2-fluoropyridin-4-yl)pyrrolo[2,1-f][1,2,4]triazin-5-yl)piperidin-3-yl)-5-chloro-3-(2-morpholinoethoxy) thiophene-2-carboxamide, TFA], the 50% inhibitory concentration (IC50) amounted to 5 nM.

`CN(C)CCOc1cc(Cl)sc1C(=O)N[C@@H]1CCCN(c2cc(-c3ccnc(F)c3)n3ncnc(N)c23)C1` [Example 149, (R)-N-(1-(4-amino-7-(2-fluoropyridin-4-yl)pyrrolo[2,1-f][1,2,4]triazin-5-yl)piperidin-3-yl)-5-chloro-3-(2-(dimethylamino)ethoxy) thiophene-2-carboxamide, TFA]: the 50% inhibitory concentration (IC50) was found to be 1 nM.

(Values after patent US20260250290A1 (BRISTOL-MYERS SQUIBB COMPANY, priority 2023, published 2026).)
